Patent publication US20250223268A1, “4-Methylsulfonylbenzamide Compound, Preparation Method, Herbicidal Composition And Use” (Jiangsu Flag Chemical Industry Co., Ltd., priority 2022, published 2025)

Columns and labels:
Format in all cases: in vivo
[1] = test system: Oryza sativa subsp. indica; test: Greenhouse herbicidal activity and crop safety comparison (Test Example 2)
Description: (§1) Pre-emergence: Seeds of gramineous weeds (Echinochloa crusgalli, Echinochloa crusgalli var. zelayensis, Echinochloa phyllopogon, Eleusine indica, Digitaria sanguinalis, Leptochloa chinensis, Setaria viridis, Alopecurus japonicus Steud, Beckmannia syzigachne, Polypogon fugax, Alopecurus aequalis, Lolium multiflorum, Poa annua, Aegilops tataschii, Avena fatua, Alopecurus myosuroides, Bromus japonicus), broadleaf weeds (Eclipta prostrata, Amaranthus retroflexus, Rorippa indica, Myosoton aquaticum, Veronica didyma, Galium aparine, Solanum nigrum, Xanthium sibiricum, Conyza canadensis, Sesbania cannabina, Sagittaria trifolia), and Cyperus iria (Cyperus iria, Scirpus juncoides, Cyperus difformis, etc.) were sown in plastic pots (7 cm diameter) with nutrient soil and bottom holes. Crop seeds (including Oryza sativa subsp. indica, Oryza sativa subsp. japonica, Oryza sativa L. var. Glutinosa matsum, Triticum aestivum, Zea mays, Sorghum bicolor, Setaria italica, Glycine max, Gossypium hirsutum, Brassica napus, Arachis hypogaea) were sown in plastic pots (10 cm diameter) with nutrient soil and bottom holes. After sowing, the seeds were lightly covered with soil, and the soil was moistened via bottom water absorption. The pots were placed in a constant-temperature light-controlled growth chamber for 24 hours before soil spraying. Spraying was performed using a 3WP-2000 walking-type spray tower (produced by the Nanjing Agricultural Mechanization Institute, Ministry of Agriculture) with a spindle speed of 96 mm/r, spray height of 300 mm, effective spray width of 350 mm, spray area of 0.35 m^2, and nozzle flow rate of 390 mL/min.
(§2) After treatment, the test materials were air-dried naturally in the laboratory and then transferred to the growth chamber. Results were assessed 14-30 days later.
(§3) Post-emergence: Seeds of gramineous weeds (Echinochloa crusgalli, Echinochloa crusgalli var. zelayensis, Echinochloa phyllopogon, Eleusine indica, Digitaria sanguinalis, Leptochloa chinensis, Setaria viridis, Alopecurus japonicus Steud, Beckmannia syzigachne, Polypogon fugax, Alopecurus aequalis, Lolium multiflorum, Poa annua, Aegilops tataschii, Avena fatua, Alopecurus myosuroides, Bromus japonicus), broadleaf weeds (Eclipta prostrata, Amaranthus retroflexus, Rorippa indica, Myosoton aquaticum, Veronica didyma, Galium aparine, Solanum nigrum, Xanthium sibiricum, Conyza canadensis, Sesbania cannabina, Sagittaria trifolia), and Cyperus iria (Cyperus iria, Scirpus juncoides, Cyperus difformis, etc.) were sown in plastic pots (7 cm diameter) with nutrient soil and bottom holes. Crop seeds (including Oryza sativa subsp. indica, Oryza sativa subsp. japonica, Oryza sativa L. var. Glutinosa matsum, Triticum aestivum, Zea mays, Sorghum bicolor, Setaria italica, Glycine max, Gossypium hirsutum, Brassica napus, Arachis hypogaea) were sown in plastic pots (10 cm diameter) with nutrient soil and bottom holes. After sowing, the pots were placed in the growth chamber until the plants reached the 3-6 leaf stage for foliar spraying. Post-treatment, the materials were air-dried naturally and returned to the growth chamber. Results were assessed 14-21 days later.
(§4) • A: Fresh weight inhibition rate≥80% to 100%; • B: Fresh weight inhibition rate[…] to <80%; • C: Fresh weight inhibition rate≥40% to <60%; • D: Fresh weight inhibition rate≥20% to <40%; • E: Fresh weight inhibition rate<20%; • NT: Not tested.
(§5) Using the above method, the herbicidal activity and crop safety of the present compounds were compared with structurally similar known compounds (CK1, CK2, CK3, CK4: compounds 4-756, 4-759, 1-557, 1-563 from WO2012028579A1; CK5: compound 290-1 from WO2013087577A1; CK6: compound 1-129 from WO2011035874A1).

[2] = test system: Oryza sativa subsp. japonica; test: as above
Description: as §1, §2, §3, §4, §5

Echinochloa crusgalli [3] = test: as above
Description: as §1, §2, §3, §4, §5

Echinochloa crusgalli [4] = test: Greenhouse herbicidal activity assay, post-emergence; settings: Post-emergence test, rate 150 g a.i./hm^2, grade by fresh weight inhibition rate
Summary of the method: (§6)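 Weeds and crops grown in pots of nutrient soil in a growth chamber to the 3-6 leaf stage, then foliar-sprayed and air-dried. Fresh weight inhibition scored 14-21 days after treatment and graded A (≥80%) through E (<20%).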

Digitaria sanguinalis = test: as above; settings: Post-emergence test, rate 150 g a.i./hm^2; grade by fresh weight inhibition rate
Summary of the method: as §6

Cyperus iria = test: as above; settings: Post-emergence test, rate 150 g a.i./hm^2; grade by fresh weight inhibition rate
Summary of the method: as §6

Leptochloa chinensis = test: as above; settings: Post-emergence test, rate 150 g a.i./hm^2; grade by fresh weight inhibition rate
Summary of the method: as §6

Eclipta prostrata = test: as above; settings: Post-emergence test, rate 150 g a.i./hm^2; grade by fresh weight inhibition rate
Summary of the method: as §6

[5] = Echinochloa crus-galli, Rate 75 g/ha, read-out: Echinochloa crusgalli, control efficacy grading (fresh weight inhibition rate)
[6] = Echinochloa crus-galli, Rate 150 g/ha, read-out: Echinochloa crusgalli, control efficacy grading (fresh weight inhibition rate)

## CCC(C)S(=O)(=O)c1c(S(C)(=O)=O)ccc(C(=O)Nc2nnnn2C)c1Cl (racemic) [Compound 1-24]
[1]; Rate 150 g/ha
  Oryza sativa subsp. indica, grading of fresh weight inhibition rate (crop safety): E (Fresh weight inhibition rate<20%)
[2]; Rate 150 g/ha
  Oryza sativa subsp. japonica, grading of fresh weight inhibition rate (crop safety): E (Fresh weight inhibition rate<20%)
Echinochloa crusgalli [3]; Rate 150 g/ha
  Echinochloa crusgalli, control efficacy grading (fresh weight inhibition rate): A (Fresh weight inhibition rate≥80% to 100%)
Echinochloa crusgalli [4]
  Control efficacy grade, Echinochloa crusgalli: A (Fresh weight inhibition rate≥80% to 100%)
Digitaria sanguinalis
  Control efficacy grade, Digitaria sanguinalis: B (Fresh weight inhibition rate≥260% to <80%)
Cyperus iria
  Control efficacy grade, Cyperus iria: A (Fresh weight inhibition rate≥80% to 100%)
Leptochloa chinensis
  Control efficacy grade, Leptochloa chinensis: A (Fresh weight inhibition rate≥80% to 100%)
Eclipta prostrata
  Control efficacy grade, Eclipta prostrata: A (Fresh weight inhibition rate≥80% to 100%)

## CCC[S+]([O-])c1c(S(C)(=O)=O)ccc(C(=O)N(C)c2nnc(C)o2)c1Cl (racemic) [Compound 3-787, 2-chloro-N-methyl-N-(5-methyl-1,3,4-oxadiazol-2-yl)-4-(methylsulfonyl)-3-(propylsulfinyl)benzamide]
[1]; Rate 75 g/ha
  Oryza sativa subsp. indica, grading of fresh weight inhibition rate (crop safety): E (Fresh weight inhibition rate<20%)
[1]; Rate 150 g/ha
  Oryza sativa subsp. indica, grading of fresh weight inhibition rate (crop safety): E (Fresh weight inhibition rate<20%)
[2]; Rate 75 g/ha
  Oryza sativa subsp. japonica, grading of fresh weight inhibition rate (crop safety): E (Fresh weight inhibition rate<20%)
[2]; Rate 150 g/ha
  Oryza sativa subsp. japonica, grading of fresh weight inhibition rate (crop safety): E (Fresh weight inhibition rate<20%)
Echinochloa crusgalli [3]; [5]
  inhibition at 75 g/ha: 80 to 100%
Echinochloa crusgalli [3]; [6]
  inhibition at 150 g/ha: 80 to 100%
Echinochloa crusgalli [4]; Echinochloa crus-galli, read-out: Control efficacy grade, Echinochloa crusgalli
  pest or weed control at 150 g/ha: 80 to 100%

## CCC[S+]([O-])c1c(S(C)(=O)=O)ccc(C(=O)N(C)c2nnco2)c1Cl (racemic) [Compound 3-795]
[1]; Rate 150 g/ha
  Oryza sativa subsp. indica, grading of fresh weight inhibition rate (crop safety): E (Fresh weight inhibition rate<20%)
[2]; Rate 150 g/ha
  Oryza sativa subsp. japonica, grading of fresh weight inhibition rate (crop safety): E (Fresh weight inhibition rate<20%)
Echinochloa crusgalli [3]; Rate 150 g/ha
  Echinochloa crusgalli, control efficacy grading (fresh weight inhibition rate): A (Fresh weight inhibition rate≥80% to 100%)
Echinochloa crusgalli [4]
  Control efficacy grade, Echinochloa crusgalli: A (Fresh weight inhibition rate≥80% to 100%)

## CCC[S+]([O-])c1c(S(C)(=O)=O)ccc(C(=O)N(C)c2nnc(CC)o2)c1Cl (racemic) [Compound 3-798]
[1]; Rate 150 g/ha
  Oryza sativa subsp. indica, grading of fresh weight inhibition rate (crop safety): E (Fresh weight inhibition rate<20%)
[2]; Rate 150 g/ha
  Oryza sativa subsp. japonica, grading of fresh weight inhibition rate (crop safety): E (Fresh weight inhibition rate<20%)
Echinochloa crusgalli [3]; Rate 150 g/ha
  Echinochloa crusgalli, control efficacy grading (fresh weight inhibition rate): A (Fresh weight inhibition rate≥80% to 100%)
Echinochloa crusgalli [4]
  Control efficacy grade, Echinochloa crusgalli: A (Fresh weight inhibition rate≥80% to 100%)

## CCC[S+]([O-])c1c(S(C)(=O)=O)ccc(C(=O)N(C)c2nnc(C)o2)c1Cl (single isomer, unassigned) [Compound 3-788]
[1]; Rate 75 g/ha
  Oryza sativa subsp. indica, grading of fresh weight inhibition rate (crop safety): E (Fresh weight inhibition rate<20%)
[1]; Rate 150 g/ha
  Oryza sativa subsp. indica, grading of fresh weight inhibition rate (crop safety): E (Fresh weight inhibition rate<20%)
[2]; Rate 75 g/ha
  Oryza sativa subsp. japonica, grading of fresh weight inhibition rate (crop safety): E (Fresh weight inhibition rate<20%)
[2]; Rate 150 g/ha
  Oryza sativa subsp. japonica, grading of fresh weight inhibition rate (crop safety): E (Fresh weight inhibition rate<20%)
Echinochloa crusgalli [3]; Rate 75 g/ha
  Echinochloa crusgalli, control efficacy grading (fresh weight inhibition rate): A (Fresh weight inhibition rate≥80% to 100%)
Echinochloa crusgalli [3]; Rate 150 g/ha
  Echinochloa crusgalli, control efficacy grading (fresh weight inhibition rate): A (Fresh weight inhibition rate≥80% to 100%)
Echinochloa crusgalli [4]
  Control efficacy grade, Echinochloa crusgalli: A (Fresh weight inhibition rate≥80% to 100%)
Leptochloa chinensis
  Control efficacy grade, Leptochloa chinensis: A (Fresh weight inhibition rate≥80% to 100%)

## CCS(=O)(=O)c1c(S(C)(=O)=O)ccc(C(=O)Nc2nnnn2C)c1Cl [CK2, reference compound]
[1]; Rate 18.75 g/ha
  Oryza sativa subsp. indica, grading of fresh weight inhibition rate (crop safety): C (Fresh weight inhibition rate≥40% to <60%)
[1]; Rate 75 g/ha
  Oryza sativa subsp. indica, grading of fresh weight inhibition rate (crop safety): C (Fresh weight inhibition rate≥40% to <60%)
[1]; Rate 150 g/ha
  Oryza sativa subsp. indica, grading of fresh weight inhibition rate (crop safety): B (Fresh weight inhibition rate≥260% to <80%)
[2]; Rate 18.75 g/ha
  Oryza sativa subsp. japonica, grading of fresh weight inhibition rate (crop safety): C (Fresh weight inhibition rate≥40% to <60%)
[2]; Rate 75 g/ha
  Oryza sativa subsp. japonica, grading of fresh weight inhibition rate (crop safety): C (Fresh weight inhibition rate≥40% to <60%)
[2]; Rate 150 g/ha
  Oryza sativa subsp. japonica, grading of fresh weight inhibition rate (crop safety): B (Fresh weight inhibition rate≥260% to <80%)
Echinochloa crusgalli [3]; [5]
  inhibition at 75 g/ha: 80 to 100%
Echinochloa crusgalli [3]; [6]
  inhibition at 150 g/ha: 80 to 100%

## Cc1nnc(N(C)C(=O)c2ccc(S(C)(=O)=O)c([S+](C)[O-])c2Cl)o1 (stereo not shown) [CK5, reference compound]
[1]; Rate 18.75 g/ha
  Oryza sativa subsp. indica, grading of fresh weight inhibition rate (crop safety): E (Fresh weight inhibition rate<20%)
[1]; Rate 75 g/ha
  Oryza sativa subsp. indica, grading of fresh weight inhibition rate (crop safety): E (Fresh weight inhibition rate<20%)
[1]; Rate 150 g/ha
  Oryza sativa subsp. indica, grading of fresh weight inhibition rate (crop safety): D (Fresh weight inhibition rate≥20% to <40%)
[2]; Rate 18.75 g/ha
  Oryza sativa subsp. japonica, grading of fresh weight inhibition rate (crop safety): E (Fresh weight inhibition rate<20%)
[2]; Rate 75 g/ha
  Oryza sativa subsp. japonica, grading of fresh weight inhibition rate (crop safety): E (Fresh weight inhibition rate<20%)
[2]; Rate 150 g/ha
  Oryza sativa subsp. japonica, grading of fresh weight inhibition rate (crop safety): E (Fresh weight inhibition rate<20%)
Echinochloa crusgalli [3]; Echinochloa crus-galli, Rate 18.75 g/ha, read-out: Echinochloa crusgalli, control efficacy grading (fresh weight inhibition rate)
  inhibition at 18.75 g/ha: < 20%
Echinochloa crusgalli [3]; [5]
  inhibition at 75 g/ha: < 20%
Echinochloa crusgalli [3]; [6]
  inhibition at 150 g/ha: 20 to 40%

## Cn1nnnc1NC(=O)c1ccc(S(C)(=O)=O)c(S(=O)(=O)C2CCC2)c1Cl [Compound 1-41]
[1]; Rate 150 g/ha
  Oryza sativa subsp. indica, grading of fresh weight inhibition rate (crop safety): E (Fresh weight inhibition rate<20%)
[2]; Rate 150 g/ha
  Oryza sativa subsp. japonica, grading of fresh weight inhibition rate (crop safety): E (Fresh weight inhibition rate<20%)
Echinochloa crusgalli [3]; Rate 150 g/ha
  Echinochloa crusgalli, control efficacy grading (fresh weight inhibition rate): A (Fresh weight inhibition rate≥80% to 100%)
Echinochloa crusgalli [4]
  Control efficacy grade, Echinochloa crusgalli: A (Fresh weight inhibition rate≥80% to 100%)
Cyperus iria
  Control efficacy grade, Cyperus iria: A (Fresh weight inhibition rate≥80% to 100%)
Leptochloa chinensis
  Control efficacy grade, Leptochloa chinensis: A (Fresh weight inhibition rate≥80% to 100%)
Eclipta prostrata
  Control efficacy grade, Eclipta prostrata: A (Fresh weight inhibition rate≥80% to 100%)

## Cn1nnnc1NC(=O)c1ccc(S(C)(=O)=O)c(S(=O)(=O)C2CCCC2)c1Cl [Compound 1-46]
[1]; Rate 150 g/ha
  Oryza sativa subsp. indica, grading of fresh weight inhibition rate (crop safety): E (Fresh weight inhibition rate<20%)
[2]; Rate 150 g/ha
  Oryza sativa subsp. japonica, grading of fresh weight inhibition rate (crop safety): E (Fresh weight inhibition rate<20%)
Echinochloa crusgalli [3]; Rate 150 g/ha
  Echinochloa crusgalli, control efficacy grading (fresh weight inhibition rate): A (Fresh weight inhibition rate≥80% to 100%)
Echinochloa crusgalli [4]
  Control efficacy grade, Echinochloa crusgalli: A (Fresh weight inhibition rate≥80% to 100%)
Cyperus iria
  Control efficacy grade, Cyperus iria: A (Fresh weight inhibition rate≥80% to 100%)
Eclipta prostrata
  Control efficacy grade, Eclipta prostrata: A (Fresh weight inhibition rate≥80% to 100%)

## CCCS(=O)(=O)c1c(S(C)(=O)=O)ccc(C(=O)Nc2nnnn2CC)c1Cl [Compound 1-91]
[1]; Rate 150 g/ha
  Oryza sativa subsp. indica, grading of fresh weight inhibition rate (crop safety): E (Fresh weight inhibition rate<20%)
[2]; Rate 150 g/ha
  Oryza sativa subsp. japonica, grading of fresh weight inhibition rate (crop safety): E (Fresh weight inhibition rate<20%)
Echinochloa crusgalli [3]; Rate 150 g/ha
  Echinochloa crusgalli, control efficacy grading (fresh weight inhibition rate): A (Fresh weight inhibition rate≥80% to 100%)

## CCn1nnnc1NC(=O)c1ccc(S(C)(=O)=O)c(S(=O)(=O)C(C)C)c1Cl [Compound 1-96, 2-chloro-N-(1-ethyl-1H-tetrazol-5-yl)-3-(isopropylsulfonyl)-4-(methylsulfonyl)benzamide]
[1]; Rate 150 g/ha
  Oryza sativa subsp. indica, grading of fresh weight inhibition rate (crop safety): E (Fresh weight inhibition rate<20%)
[2]; Rate 150 g/ha
  Oryza sativa subsp. japonica, grading of fresh weight inhibition rate (crop safety): E (Fresh weight inhibition rate<20%)
Echinochloa crusgalli [3]; [6]
  inhibition at 150 g/ha: 80 to 100%
